Where “and” joins values, the source holds several entries; their conditions need not be identical. Equal values may be shown once. Read-outs that look alike come from different tables or passages of the source. Marks after values point to notes of the source that are not given here.
Columns and labels:
[1] = test system: conscious, pentagastrin-stimulated fistula dog; conditions: cited from earlier work
intragastric pH = conditions: cited from earlier work
[2] = in vivo, 3 h
Method: Saliva samples were collected from 30 subjects from each group (Normal & GERD). All GERD patients were on proton pump inhibitor (PPI) standard therapy and received a PPI dose the morning of the visit to the clinic. Saliva samples were collected for 2 minutes (min) at the following time points: Fasted state in the morning; Various times after eating a hearty breakfast: 1 hour (hr) after meal; 2 hrs after meal; 3 hrs after meal; 4 hrs after meal.
All samples were received frozen, packaged on dry ice, and were stored in a freezer set to maintain a temperature of −80° C. until analysis.
Saliva was collected from human volunteers and then pooled. Aliquots of pooled saliva were stripped of endogenous bile acids by treatment with 2 mg/mL of cholestyramine resin (Sigma Lot No. 1425455V) for 1 hour at 37° C. followed by centrifugation. The treatment/centrifugation cycle was repeated four times for a total of five cycles. After the final treatment, the saliva was pooled for use. […]
Standards were prepared in small volumes on the day of sample extraction and were analyzed in duplicate in each analytical run. […]
The detector was an Applied Biosystems Sciex API-5500 triple quadrupole mass spectrometer. The instrument was equipped with an electrospray ionization source in positive-ion mode and the analytes were monitored in the multiple-reaction-monitoring scan mode. […]

[3] = Long-term (1 month at −20° C. and −80° C.) stability in untreated human saliva; conditions: for % Bias QC-High / % CV QC-High / Difference from Fresh (%) QC-High / Mean concentration QC-High / Concentration QC-High / Fresh QCs (Batch 34) Mean at Time Zero, QC-High: untreated human saliva; for Concentration QC-High: run 35; for % Bias / Concentration, Mean / Difference from Fresh (%) / Concentration: 1 month; for Concentration: individual values
Method: (§1) For long-term stability in untreated human saliva, samples were prepared by spiking untreated human saliva with each analyte at the QC-Low and QC-High levels. The samples were stored in a −20° C. freezer and in a −80° C. freezer. After 1 month of storage, each sample was extracted in replicates of three for analysis.
(§2) A 100-μL aliquot of sample (calibration standards, quality controls, blanks, and stability samples) was transferred into a 96 well plate, according to a pre-defined layout. […] The plates were covered, vortex-mixed and then centrifuged for 5 minutes at 3200 rpm. Supernatants (350 μL each) were transferred into the corresponding wells of a clean 96 well plate and evaporated to dryness under nitrogen in a Turbovap set to 40° C. The dried residue in each well was reconstituted with 75 μL of 50:50 (v:v) methanol:water.

[4] = Frozen (−20° C.) short-term stability in cholestyramine-treated human saliva; conditions: for Concentration QC-LLOQ / Concentration QC-Mid / Concentration QC-High: run 33; for % Bias / Concentration, Mean / Concentration: −20° C.; for Concentration: individual values
How it was run: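 Cholestyramine-treated human saliva was spiked with each analyte at QC-LLOQ, QC-Low, QC-Mid and QC-High levels and stored at −20° C. After 1 day and 2 days of storage, samples were extracted in replicates of four and analysed.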

[5] = 1 month
Method: as §1, §2

[6] = 1 month −20° C. storage, nominal 80.0 ng/mL
[7] = 1 month −80° C. storage, nominal 80.0 ng/mL
[8] = 1 Day at −20° C., nominal 0.500 ng/mL
[9] = 1 Day at −20° C., nominal 8.00 ng/mL
[10] = 1 Day at −20° C., nominal 80.0 ng/mL
[11] = 2 Days at −20° C., nominal 0.500 ng/mL
[12] = 2 Days at −20° C., nominal 8.00 ng/mL
[13] = 2 Days at −20° C., nominal 80.0 ng/mL
[14] = −20° C. Storage, QC-High, nominal 80.0 ng/mL
[15] = −80° C. Storage, QC-High, nominal 80.0 ng/mL
[16] = 1 Day, QC-High, nominal 80.0 ng/mL
[17] = 1 Day, QC-LLOQ, nominal 0.500 ng/mL
[18] = 1 Day, QC-Mid, nominal 8.00 ng/mL
[19] = 2 Days, QC-High, nominal 80.0 ng/mL
[20] = 2 Days, QC-LLOQ, nominal 0.500 ng/mL
[21] = 2 Days, QC-Mid, nominal 8.00 ng/mL

In the case of COC(=O)Nc1cccc(C)c1CNc1cccn2c(C)c(C)nc12 [BY841, (8-(2-methoxycarbonylamino-6-methyl-phenylmethylamino)-2,3-dimethyl-imidazo [1,2-a]-pyridine)], the “intragastric pH” value [1] is listed as at most 6, the “pH elevation compared with ranitidine and omeprazole” value [1] is listed as “superior to both ranitidine and omeprazole” and the “effectiveness in comparison with the standard dose of omeprazole” value (intragastric pH; 50 mg or 100 mg twice daily, Day one of treatment) is listed as “markedly more effective”. The “potency in comparison with the standard dose of omeprazole” value (intragastric pH; 50 mg or 100 mg twice daily, following repeated daily administration) was “at least as potent as omeprazole” and the “intragastric pH” value (intragastric pH; single 50 mg oral dose) was “about 6”.
With C[C@H](CCC(=O)O)[C@H]1CC[C@H]2[C@@H]3CC[C@@H]4C[C@H](O)CC[C@]4(C)[C@H]3C[C@H](O)[C@]12C [Deoxycholic Acid, Deoxycholic acid] the “Concentration in human saliva samples” value [2] was 1.65 ng/mL, the “Long-term stability in untreated human saliva” value (“Long-term stability” for short) ([3]; at 80° C. (sic)) was “up to 1 month” and the “Stability in Untreated Human Saliva” value ([3]; at −20° C.) was 1 Month. For the same molecule, the “Stability in Untreated Human Saliva” value ([3]; at −80° C.) was 1 Month, the “Short-term stability in cholestyramine-treated human saliva” value (“Short-term stability” below) [4] was “up to 2 days” and the “Stability in Treated Human Saliva” value [4] was 2 days.
For CC(CCC(=O)NCC(=O)O)C1CCC2C3C(O)CC4CC(O)CCC4(C)C3CCC12C (stereo not shown) [Glycochenodeoxycholic Acid, Glycochenodeoxycholic acid], the “% Bias QC-High” value [3, 6] was −4.9%, the “% CV QC-High” value [3, 6] was 2.4% and the “Difference from Fresh (%) QC-High” value [3, 6] was −4.4%. For the same molecule, the “Mean concentration QC-High” value [3, 6] was 76.1 ng/mL, the “Concentration QC-High” value [3, 6] was 74.0 ng/mL and 77.4 ng/mL and 76.9 ng/mL and the “% Bias QC-High” value [3, 7] was −3.6%. The “% CV QC-High” value [3, 7] was 5.0%, the “Difference from Fresh (%) QC-High” value [3, 7] was −3.1% and the “Mean concentration QC-High” value [3, 7] was 77.1 ng/mL. The “Concentration QC-High” value [3, 7] was 80.6 ng/mL and 77.8 ng/mL and 73.0 ng/mL, the “Fresh QCs (Batch 34) Mean at Time Zero, QC-High” value ([3]; reference for −20° C. storage, nominal 80.0 ng/mL) was 79.6 ng/mL and the “Fresh QCs (Batch 34) Mean at Time Zero, QC-High” value ([3]; reference for −80° C. storage, nominal 80.0 ng/mL) was 79.6 ng/mL. For the same molecule, the “Long-term stability” value [5] was “up to 1 month”, the “Stability in Untreated Human Saliva” value [5] was 1 Month and the “% Bias QC-LLOQ” value [4, 8] was 9.1%. For the same molecule, the “% CV QC-LLOQ” value [4, 8] was 4.7%, the “Mean concentration QC-LLOQ” value [4, 8] was 0.546 ng/mL and the “Concentration QC-LLOQ” value [4, 8] was 0.538 ng/mL and 0.551 ng/mL and 0.516 ng/mL and 0.578 ng/mL. For the same molecule, the “% Bias QC-Mid” value [4, 9] was −2.4%, the “% CV QC-Mid” value [4, 9] was 2.4% and the “Mean concentration QC-Mid” value [4, 9] was 7.81 ng/mL. For the same molecule, the “Concentration QC-Mid” value [4, 9] was 7.56 ng/mL and 7.99 ng/mL and 7.92 ng/mL and 7.76 ng/mL, the “% Bias QC-High” value [4, 10] was −1.3% and the “% CV QC-High” value [4, 10] was 2.2%. For the same molecule, the “Mean concentration QC-High” value [4, 10] was 78.9 ng/mL, the “Concentration QC-High” value [4, 10] was 79.3 ng/mL and 80.9 ng/mL and 76.6 ng/mL and 78.9 ng/mL and the “% Bias QC-LLOQ” value [4, 11] was 16.5%. For the same molecule, the “% CV QC-LLOQ” value [4, 11] was 4.1%, the “Mean concentration QC-LLOQ” value [4, 11] was 0.583 ng/mL and the “Concentration QC-LLOQ” value [4, 11] was 0.596 ng/mL and 0.597 ng/mL and 0.555 ng/mL and 0.674^a ng/mL. The “% Bias QC-Mid” value [4, 12] was 2.1%, the “% CV QC-Mid” value [4, 12] was 3.8% and the “Mean concentration QC-Mid” value [4, 12] was 8.17 ng/mL. The “Concentration QC-Mid” value [4, 12] was 7.71 ng/mL and 8.40 ng/mL and 8.22 ng/mL and 8.33 ng/mL, the “% Bias QC-High” value [4, 13] was 0.9% and the “% CV QC-High” value [4, 13] was 2.9%. The “Mean concentration QC-High” value [4, 13] was 80.8 ng/mL, the “Concentration QC-High” value [4, 13] was 78.3 ng/mL and 80.4 ng/mL and 80.3 ng/mL and 84.0 ng/mL and the “Short-term stability” value [4] was “up to 2 days”. For the same molecule, the “Stability in Treated Human Saliva” value [4] was 2 days.
In the case of CC(CCC(=O)NCC(=O)O)C1CCC2C3CCC4CC(O)CCC4(C)C3CC(O)C12C (stereo not shown) [Glycodeoxycholic Acid, Glycodeoxycholic acid], the “% Bias” value [3, 14] is reported as −3.9%, the “Concentration, Mean” value [3, 14] is reported as 76.9 ng/mL and the “Difference from Fresh (%)” value [3, 14] is reported as 0.7%. For the same molecule, the Concentration [3, 14] was 75.5 ng/mL and 75.9 ng/mL and 79.2 ng/mL, the “% Bias” value [3, 15] was −0.1% and the “Concentration, Mean” value [3, 15] was 79.9 ng/mL. The “Difference from Fresh (%)” value [3, 15] was 4.7%, the Concentration [3, 15] was 81.9 ng/mL and 80.0 ng/mL and 77.8 ng/mL and the “Fresh QCs (Batch 34) Mean at Time Zero” value ([3]; QC-High, nominal 80.0 ng/mL) was 76.3 ng/mL. The “Long-term stability” value [5] was “up to 1 month”, the “Stability in Untreated Human Saliva” value [5] was 1 Month and the “Short-term stability” value [4] was “up to 2 days”. For the same molecule, the “Stability in Treated Human Saliva” value [4] was 2 days, the “% Bias” value [4, 16] was −5.0% and the “Concentration, Mean” value [4, 16] was 76.0 ng/mL. For the same molecule, the Concentration [4, 16] was 76.0 ng/mL and 78.9 ng/mL and 73.6 ng/mL and 75.5 ng/mL, the “% Bias” value [4, 17] was −1.1% and the “Concentration, Mean” value [4, 17] was 0.495 ng/mL. For the same molecule, the Concentration [4, 17] was 0.500 ng/mL and 0.472 ng/mL and 0.488 ng/mL and 0.519 ng/mL, the “% Bias” value [4, 18] was −5.0% and the “Concentration, Mean” value [4, 18] was 7.60 ng/mL. The Concentration [4, 18] was 7.43 ng/mL and 8.14 ng/mL and 7.61 ng/mL and 7.21 ng/mL, the “% Bias” value [4, 19] was −6.1% and the “Concentration, Mean” value [4, 19] was 75.2 ng/mL. For the same molecule, the Concentration [4, 19] was 74.0 ng/mL and 73.3 ng/mL and 75.6 ng/mL and 77.7 ng/mL, the “% Bias” value [4, 20] was 15.0% and the “Concentration, Mean” value [4, 20] was 0.575 ng/mL. The Concentration [4, 20] was 0.654^a ng/mL and 0.589 ng/mL and 0.551 ng/mL and 0.599 ng/mL, the “% Bias” value [4, 21] was 2.5% and the “Concentration, Mean” value [4, 21] was 8.20 ng/mL. The Concentration [4, 21] was 7.91 ng/mL and 7.87 ng/mL and 8.54 ng/mL and 8.49 ng/mL.

— patent publication US20200138854A1, “Method of Detecting and Quantifying Bile Acid from Saliva” (Ironwood Pharmaceuticals, Inc., priority 2017, published 2020)
